Data taken from patent US6605427B2, “Assay for detection of viral fusion inhibitors” (priority 2000, dated 2003).
Read-outs that look alike come from different tables or passages of the source.

Molecular target: HIV-1 gp41 core structure (six-helix bundle) formation (Human immunodeficiency virus type 1 group M subtype B, UniProt P04578)
Procedure: Two days following transfection, intact 293T cells transiently expressing the HIV-1 HXB2 envelope are incubated in the presence of the test compound. At the end of 1 h, 2 μg of soluble CD4 (sCD4) or a cell line expressing CD4 is added. At the end of an additional 1 h, the monoclonal antibody against the six-helix bundle structure is added at a concentration of 10 μg/ml and the mixture is allowed to incubate at 25° C. for 3 hr. Following this incubation the cells are washed 4 times with PBS and lysed with 1 ml lysis buffer (1% Triton X-100, 150 mM NaCl, and 50 mM Tris-Cl pH 7.4). […] Immunoprecipitated complexes are analyzed by 10% SDS-Page gel, transferred to nitrocellulose and immunoblotted with the anti-gp41 monoclonal antibody Chessie 8 (obtained from NIH AIDS Research and Reference Reagent Program) and detected by chemiluminescence and autoradiography.
The ability of the test compound to disrupt these critical conformational changes is assessed by characterizing the formation of the gp41 core structure. […]
The assay is a modified form of an immunoprecipitation (IP) assay and involves incubating the test compound with intact, virus-infected cells expressing the gp120/gp41 envelope complex on their surface. […] In these experiments the ability of a test compound to disrupt gp41 conformational changes was measured by determining its effect of core structure formation.

## C=C(C)[C@@H]1CC[C@]2(C(=O)O)CC[C@]3(C)[C@H](CC[C@@H]4[C@@]5(C)CC[C@H](OC(=O)CC(C)(C)C(=O)O)C(C)(C)[C@@H]5CC[C@]43C)[C@@H]12 [DSB, dimethylsuccinylbetulinic acid]
100 μg/ml DSB (FIG. 8 lane 3)
  amount of gp41 immunoprecipitated following sCD4 triggering: further reduced to a level nearly identical to that recovered in the absence of CD4 triggering
10 Mg/ml DSB (FIG. 8 lane 2) versus no test compound (lane 1)
  amount of gp41 immunoprecipitated following sCD4 triggering: significantly greater than the amount of gp41 immunoprecipitated in the presence of 10 Mg/ml DSB
